Assay results: patent US20090042987A1, “TREATMENT OF NEUROPATHIC PAIN” (priority 2007, published 2009)

Tested on: drug-naïve STZ-diabetic rats
Assay: von Frey paw withdrawal thresholds, drug-naïve STZ-diabetic rats, Example 2
Type: in vivo, rat
Conditions: for Mean (±SEM) AUC (area under the normalized PWT versus time curve) / Mean (±SEM) Peak response (PWT) / Mean (±SEM) % MPR at peak: after 7th consecutive twice-daily dose; for Mean (±SEM) % MPR at peak: 100% MPR = full reversal of tactile allodynia
Protocol: Experimental Animals Ethical approval for this study was obtained from the Animal Experimentation Ethics Committee of The University of Queensland. Adult male Sprague-Dawley (SD) rats (222±4 g) were used for this study. Rats were housed in a temperature controlled room (21+2.0 C) with a 12/12 hour light/dark cycle. Food and water were available ad libitum. Initiation of drug administration occurred at 8-11 weeks post-STZ administration for rats in Experiment 1 (PCT-001) and at 10-12 weeks post-STZ administration for rats in Experiment 2 (PCT-007).
Test Article Tranilast was supplied by the Sponsor and stored at −4° C. until use. Gabapentin (100 mg/kg, dissolved in water for injection) was utilized as the positive control for this study.
Test Article and Vehicle Preparation Test article formulations were prepared freshly on the day of administration by weighing the appropriate amount of bulk powder and suspending it in the required volume of vehicle. Carboxymethyl cellulose ((CMC) 0.5% in water for injection) was utilized as the vehicle for this study.
Test Article Administration. […] The maximum oral gavage volume administered in this study was […]. 4.4
STZ-Diabetic Rat Model of Painful Diabetic Neuropathy. Painful diabetic neuropathy is a common long-term complication of diabetes in humans that develops as a result of a sustained biochemical nerve injury. […] Following the induction of diabetes with intravenous STZ at 70-80 mg/kg, it generally takes 6-8 wks for tactile allodynia, the defining symptom of PDN, to fully develop in both rat hindpaws.
Induction of STZ-Diabetes in Rats. On day 0, rats were anaesthetized with 3% isoflurane:97% O2 and a short polyethylene cannula (0.5 mm ID, 0.8 mm OD) was inserted into the jugular vein to facilitate the intravenous (i.v.) administration of a single dose of streptozotocin (STZ: 70-80 mg/kg). After STZ injection, the cannula was removed and the jugular vein was tied off and the wound was closed. Rats received subcutaneous benzylpenicillin (60 mg) prior to surgery to prevent infection and were kept warm during surgical recovery. Rats were housed singly prior to further experimentation and were monitored daily from the time of STZ administration with regard to general health and well-being.
Von Frey Assessment of Paw Withdrawal Thresholds. Calibrated von Frey filaments were used to determine the lowest mechanical threshold required to evoke a brisk paw withdrawal reflex in the rat hindpaws. Briefly, rats were transferred individually to wire mesh testing cages (20 cm×20 cm×20 cm) and allowed to acclimatize for approximately 10-20 min prior to von Frey testing. Commencing with the von Frey filament that produced the 6 g force, the filament was applied to the plantar surface of the hindpaw until the filament buckled slightly. Absence of a response after 3 s prompted use of the next filament of increasing weight. A withdrawal response within 3 s prompted use of the next filament of decreasing weight. Filaments used produced buckling weights of 2, 4, 6, 8, 10, 12, 14, 16, 18 and 20 g. […] Tactile allodynia is regarded as being fully developed when von Frey PWTs in the injured hindpaws are <6 g.
Restoring von-Frey PWTs in the hindpaws from <6 g to pre-STZ surgery levels (12±2 g) is the treatment goal representing full reversal of tactile allodynia. If drug treatment increases PWTs above pre-surgical baseline values (i.e. >12±2 g), such a response is classified as antinociception. Before administration of STZ, baseline von Frey measurements were assessed. Following STZ administration, baseline PWTs were assessed in the hindpaws at week 8-11 to confirm the development of diabetes-induced tactile allodynia.
Dose-Response Curve for Tranilast in Drug-Naive STZ-Diabetic Rats. […]

SMILES: COc1ccc(/C=C/C(=O)Nc2ccccc2C(=O)O)cc1OC [Tranilast, 2-[[3-(3,4-dimethoxyphenyl)-1-oxo-2-propenyl]amino]benzoic acid]
- Mean (±SEM) von Frey Paw Withdrawal threshold assessed prior to dose (tranilast 100 mg/kg oral twice-daily, prior to dose 1): 4.8 ± 0.5 g
- Mean (±SEM) von Frey Paw Withdrawal threshold assessed prior to dose (tranilast 100 mg/kg oral twice-daily, prior to dose 3): 4.4 ± 0.7 g
- Mean (±SEM) von Frey Paw Withdrawal threshold assessed prior to dose (tranilast 100 mg/kg oral twice-daily, prior to dose 5): 5.1 ± 0.5 g
- Mean (±SEM) von Frey Paw Withdrawal threshold assessed prior to dose (tranilast 100 mg/kg oral twice-daily, prior to dose 7): 5.3 ± 0.5 g
- Mean (±SEM) von Frey Paw Withdrawal threshold following the 7th consecutive dose (tranilast 100 mg/kg oral twice-daily, time 0 h (pre-dose)): 5.3 ± 0.4 g
- Mean (±SEM) von Frey Paw Withdrawal threshold following the 7th consecutive dose (tranilast 100 mg/kg oral twice-daily, time 0.15 h): 6.0 ± 0 g
- Mean (±SEM) von Frey Paw Withdrawal threshold following the 7th consecutive dose (tranilast 100 mg/kg oral twice-daily, time 0.5 h): 7.25 ± 0.5 g
- Mean (±SEM) von Frey Paw Withdrawal threshold following the 7th consecutive dose (tranilast 100 mg/kg oral twice-daily, time 0.75 h): 7.75 ± 0.25 g
- Mean (±SEM) von Frey Paw Withdrawal threshold following the 7th consecutive dose (tranilast 100 mg/kg oral twice-daily, time 1 h): 8.25 ± 0.5 g
- Mean (±SEM) von Frey Paw Withdrawal threshold following the 7th consecutive dose (tranilast 100 mg/kg oral twice-daily, time 1.25 h): 8.0 ± 0 g
- Mean (±SEM) von Frey Paw Withdrawal threshold following the 7th consecutive dose (tranilast 100 mg/kg oral twice-daily, time 1.5 h): 6.75 ± 0.5 g
- Mean (±SEM) von Frey Paw Withdrawal threshold following the 7th consecutive dose (tranilast 100 mg/kg oral twice-daily, time 2 h): 7.0 ± 0.6 g
- Mean (±SEM) von Frey Paw Withdrawal threshold following the 7th consecutive dose (tranilast 100 mg/kg oral twice-daily, time 3 h): 6.25 ± 0.3 g
- Mean (±SEM) AUC (area under the normalized PWT versus time curve) (tranilast 100 mg/kg oral): 4.98 ± 1.7
- Mean (±SEM) Peak response (PWT) (tranilast 100 mg/kg oral): 8.25 ± 0.5
- Mean (±SEM) % MPR at peak (tranilast 100 mg/kg oral): 53.2 ± 3.3%
- Mean (±SEM) von Frey Paw Withdrawal threshold assessed prior to dose (tranilast 200 mg/kg oral twice-daily, prior to dose 1): 4.9 ± 0.6 g
- Mean (±SEM) von Frey Paw Withdrawal threshold assessed prior to dose (tranilast 200 mg/kg oral twice-daily, prior to dose 3): 5.2 ± 0.6 g
- Mean (±SEM) von Frey Paw Withdrawal threshold assessed prior to dose (tranilast 200 mg/kg oral twice-daily, prior to dose 5): 5.2 ± 0.5 g
- Mean (±SEM) von Frey Paw Withdrawal threshold assessed prior to dose (tranilast 200 mg/kg oral twice-daily, prior to dose 7): 5.2 ± 0.5 g
- Mean (±SEM) von Frey Paw Withdrawal threshold following the 7th consecutive dose (tranilast 200 mg/kg oral twice-daily, time 0 h (pre-dose)): 5.2 ± 0.4 g
- Mean (±SEM) von Frey Paw Withdrawal threshold following the 7th consecutive dose (tranilast 200 mg/kg oral twice-daily, time 0.15 h): 5.75 ± 0.7 g
- Mean (±SEM) von Frey Paw Withdrawal threshold following the 7th consecutive dose (tranilast 200 mg/kg oral twice-daily, time 0.5 h): 7.25 ± 0.5 g
- Mean (±SEM) von Frey Paw Withdrawal threshold following the 7th consecutive dose (tranilast 200 mg/kg oral twice-daily, time 0.75 h): 8.25 ± 0.25 g
- Mean (±SEM) von Frey Paw Withdrawal threshold following the 7th consecutive dose (tranilast 200 mg/kg oral twice-daily, time 1 h): 8.75 ± 0.5 g
- Mean (±SEM) von Frey Paw Withdrawal threshold following the 7th consecutive dose (tranilast 200 mg/kg oral twice-daily, time 1.25 h): 7.25 ± 0.25 g
- Mean (±SEM) von Frey Paw Withdrawal threshold following the 7th consecutive dose (tranilast 200 mg/kg oral twice-daily, time 1.5 h): 7.0 ± 0.5 g
- Mean (±SEM) von Frey Paw Withdrawal threshold following the 7th consecutive dose (tranilast 200 mg/kg oral twice-daily, time 2 h): 7.25 ± 0.25 g
- Mean (±SEM) von Frey Paw Withdrawal threshold following the 7th consecutive dose (tranilast 200 mg/kg oral twice-daily, time 3 h): 6.0 ± 0 g
- Mean (±SEM) AUC (area under the normalized PWT versus time curve) (tranilast 200 mg/kg oral): 5.75 ± 0.7
- Mean (±SEM) Peak response (PWT) (tranilast 200 mg/kg oral): 8.75 ± 0.5
- Mean (±SEM) % MPR at peak (tranilast 200 mg/kg oral): 62.6 ± 11.7%
- Mean (±SEM) von Frey Paw Withdrawal threshold assessed prior to dose (tranilast 300 mg/kg oral twice-daily, prior to dose 1): 4.2 ± 0.6 g
- Mean (±SEM) von Frey Paw Withdrawal threshold assessed prior to dose (tranilast 300 mg/kg oral twice-daily, prior to dose 3): 3.7 ± 0.8 g
- Mean (±SEM) von Frey Paw Withdrawal threshold assessed prior to dose (tranilast 300 mg/kg oral twice-daily, prior to dose 5): 3.9 ± 0.7 g
- Mean (±SEM) von Frey Paw Withdrawal threshold assessed prior to dose (tranilast 300 mg/kg oral twice-daily, prior to dose 7): 4.8 ± 0.6 g
- Mean (±SEM) von Frey Paw Withdrawal threshold following the 7th consecutive dose (tranilast 300 mg/kg oral twice-daily, time 0 h (pre-dose)): 4.8 ± 0.5 g
- Mean (±SEM) von Frey Paw Withdrawal threshold following the 7th consecutive dose (tranilast 300 mg/kg oral twice-daily, time 0 h (pre-dose), listed as tranilast): 4.8 (±0.5) g
- Mean (±SEM) von Frey Paw Withdrawal threshold following the 7th consecutive dose (tranilast 300 mg/kg oral twice-daily, time 0.15 h): 5.4 ± 0.7 g
- Mean (±SEM) von Frey Paw Withdrawal threshold following the 7th consecutive dose (tranilast 300 mg/kg oral twice-daily, time 0.5 h): 8.6 ± 1.5 g
